Where two headings read alike, the source gives them in different places.
What was measured:
[1] = target: human JAK3 (Homo sapiens (Human), UniProt P52333); experiment: JAK3 kinase inhibitory activity, ADP Glo kinase assay; assay type: biochemical; details: recombinant purified human JAK3, ATP 5 uM, Poly(Glu4,Tyr1) peptide, 1 hour 30° C.
Experimental: JAK3 and BTK kinases inhibitory activities were measured for the compounds prepared in the Examples through in vitro analysis on the ADP Glow (Glo) platform.
Specifically, the inhibitory activities against JAK3 and BTK kinase were measured using a JAK3 kinase assay kit (Promega, V9441) and a BTK kinase assay kit (Promega, V9071) which were purchased from Promega. […] After incubation (30° C.) for 1 hour, equivalent volume (25 uL per reaction) of ADP Glo was added and incubated (30° C.) for 40 minutes at room temperature. Then, a kinase detection reagent (50 uL per reaction) was added and incubated (30° C.) for 30 minutes at room temperature. The kinase activity was measured by chemiluminescence according to the instructions of ADP Glow kinase assay kit, and the inhibitory activity of the compounds according to the present disclosure was calculated.

[2] = target: JAK3 kinase (Mus musculus (Mouse), UniProt Q62137); experiment: JAK3-mediated cell assay (HT-2/IL-2 assay), STAT5 phosphorylation HTRF; assay type: cell-based; details: STAT5 phosphorylation induced by IL-2 (20 ng/ml, 10 minutes) in HT-2 cells, compound treatment 30 minutes
Sequence of JAK3 kinase (Q62137 whole entry): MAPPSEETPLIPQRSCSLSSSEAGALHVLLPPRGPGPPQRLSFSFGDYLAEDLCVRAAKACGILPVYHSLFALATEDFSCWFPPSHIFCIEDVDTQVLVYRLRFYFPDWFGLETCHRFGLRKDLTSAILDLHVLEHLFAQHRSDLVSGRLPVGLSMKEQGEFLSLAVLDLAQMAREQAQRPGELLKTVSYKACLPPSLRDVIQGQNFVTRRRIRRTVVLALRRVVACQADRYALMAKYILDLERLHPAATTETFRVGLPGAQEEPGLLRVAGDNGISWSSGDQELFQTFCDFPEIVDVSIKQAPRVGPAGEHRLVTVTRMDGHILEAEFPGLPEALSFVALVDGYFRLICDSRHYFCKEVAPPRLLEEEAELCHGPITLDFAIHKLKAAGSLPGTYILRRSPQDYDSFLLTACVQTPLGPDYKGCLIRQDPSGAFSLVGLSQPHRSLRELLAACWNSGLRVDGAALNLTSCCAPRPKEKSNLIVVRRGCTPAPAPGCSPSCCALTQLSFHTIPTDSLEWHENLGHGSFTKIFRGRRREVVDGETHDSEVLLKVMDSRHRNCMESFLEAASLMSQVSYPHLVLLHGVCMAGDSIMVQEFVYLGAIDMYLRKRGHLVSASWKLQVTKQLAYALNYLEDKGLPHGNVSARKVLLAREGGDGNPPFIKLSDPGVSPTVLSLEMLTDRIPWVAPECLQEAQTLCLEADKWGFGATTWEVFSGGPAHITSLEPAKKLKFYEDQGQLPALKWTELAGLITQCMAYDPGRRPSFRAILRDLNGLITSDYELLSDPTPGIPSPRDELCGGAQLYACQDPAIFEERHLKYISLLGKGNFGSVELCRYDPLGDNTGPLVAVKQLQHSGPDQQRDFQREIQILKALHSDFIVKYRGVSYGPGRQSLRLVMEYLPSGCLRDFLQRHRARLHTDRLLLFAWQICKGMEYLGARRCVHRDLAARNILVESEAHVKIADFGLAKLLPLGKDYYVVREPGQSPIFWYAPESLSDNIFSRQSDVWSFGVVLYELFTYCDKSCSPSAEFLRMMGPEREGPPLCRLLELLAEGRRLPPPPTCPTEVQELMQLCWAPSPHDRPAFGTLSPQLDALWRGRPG
Experimental: The inhibitory activities against JAK3 kinase at the cellular level were measured for the compounds prepared in the Examples through in vitro analysis of STAT5 phosphorylation induced by IL-2 stimulation in HT-2 cells. Specifically, STAT5 phosphorylation was analyzed using HTRF® phospho-STAT5 (Tyr694) assay kit (Cisbio, 64AT5PEG), which was purchased from Cisbio. HT-2 cells were cultured for 2 hours in growth factor-free medium. The cultured HT-2 cells were dispensed into 96-well plates by 50 ul so as to be a density of 2.5×10^5 cells/well. The compounds prepared in the previous Examples were prepared so as to be finally a 0.3% DMSO aqueous solution, and HT-2 cells was treated with the compounds for 30 minutes. After the compound treatment, IL-2 was prepared so as to be finally a concentration of 20 ng/ml, and HT-2 cells was treated for 10 minutes. The cells were then disrupted by treating lysis buffers for 30 minutes. The level of STAT5 phosphorylation was measured according to the instructions of HTRF® phospho-STAT5 assay kit, and the inhibitory activity of the compounds according to the invention was calculated. For the analysis of the results of each compound, Microsoft Excel was used, and IC50 values were calculated by SigmaPlot software.

[3] = target: human BTK (Homo sapiens (Human), UniProt Q06187); experiment: BTK kinase inhibitory activity, ADP Glo kinase assay
Sequence of human BTK (Q06187 whole entry): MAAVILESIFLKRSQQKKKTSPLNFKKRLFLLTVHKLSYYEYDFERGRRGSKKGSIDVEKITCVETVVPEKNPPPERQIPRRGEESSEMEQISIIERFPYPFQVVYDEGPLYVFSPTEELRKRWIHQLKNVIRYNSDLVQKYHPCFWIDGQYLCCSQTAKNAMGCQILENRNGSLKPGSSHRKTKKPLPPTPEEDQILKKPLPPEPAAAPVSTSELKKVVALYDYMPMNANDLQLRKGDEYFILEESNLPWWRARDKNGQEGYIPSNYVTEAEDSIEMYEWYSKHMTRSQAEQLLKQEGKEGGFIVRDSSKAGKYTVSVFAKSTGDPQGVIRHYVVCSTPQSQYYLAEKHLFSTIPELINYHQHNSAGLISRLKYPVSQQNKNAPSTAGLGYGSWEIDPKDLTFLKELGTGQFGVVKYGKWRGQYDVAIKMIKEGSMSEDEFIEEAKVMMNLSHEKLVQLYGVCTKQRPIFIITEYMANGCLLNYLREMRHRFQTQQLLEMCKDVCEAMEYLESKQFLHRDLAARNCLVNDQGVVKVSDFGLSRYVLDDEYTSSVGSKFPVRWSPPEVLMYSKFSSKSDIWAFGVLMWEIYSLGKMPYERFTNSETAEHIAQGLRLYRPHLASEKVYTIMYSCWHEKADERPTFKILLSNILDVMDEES

[4] = read-out: BTK IC50, recombinant purified human BTK, ATP 10 uM, Poly(Glu4,Tyr1) peptide, 1 hour 30° C.

Sequence of human JAK3 (P52333 whole entry): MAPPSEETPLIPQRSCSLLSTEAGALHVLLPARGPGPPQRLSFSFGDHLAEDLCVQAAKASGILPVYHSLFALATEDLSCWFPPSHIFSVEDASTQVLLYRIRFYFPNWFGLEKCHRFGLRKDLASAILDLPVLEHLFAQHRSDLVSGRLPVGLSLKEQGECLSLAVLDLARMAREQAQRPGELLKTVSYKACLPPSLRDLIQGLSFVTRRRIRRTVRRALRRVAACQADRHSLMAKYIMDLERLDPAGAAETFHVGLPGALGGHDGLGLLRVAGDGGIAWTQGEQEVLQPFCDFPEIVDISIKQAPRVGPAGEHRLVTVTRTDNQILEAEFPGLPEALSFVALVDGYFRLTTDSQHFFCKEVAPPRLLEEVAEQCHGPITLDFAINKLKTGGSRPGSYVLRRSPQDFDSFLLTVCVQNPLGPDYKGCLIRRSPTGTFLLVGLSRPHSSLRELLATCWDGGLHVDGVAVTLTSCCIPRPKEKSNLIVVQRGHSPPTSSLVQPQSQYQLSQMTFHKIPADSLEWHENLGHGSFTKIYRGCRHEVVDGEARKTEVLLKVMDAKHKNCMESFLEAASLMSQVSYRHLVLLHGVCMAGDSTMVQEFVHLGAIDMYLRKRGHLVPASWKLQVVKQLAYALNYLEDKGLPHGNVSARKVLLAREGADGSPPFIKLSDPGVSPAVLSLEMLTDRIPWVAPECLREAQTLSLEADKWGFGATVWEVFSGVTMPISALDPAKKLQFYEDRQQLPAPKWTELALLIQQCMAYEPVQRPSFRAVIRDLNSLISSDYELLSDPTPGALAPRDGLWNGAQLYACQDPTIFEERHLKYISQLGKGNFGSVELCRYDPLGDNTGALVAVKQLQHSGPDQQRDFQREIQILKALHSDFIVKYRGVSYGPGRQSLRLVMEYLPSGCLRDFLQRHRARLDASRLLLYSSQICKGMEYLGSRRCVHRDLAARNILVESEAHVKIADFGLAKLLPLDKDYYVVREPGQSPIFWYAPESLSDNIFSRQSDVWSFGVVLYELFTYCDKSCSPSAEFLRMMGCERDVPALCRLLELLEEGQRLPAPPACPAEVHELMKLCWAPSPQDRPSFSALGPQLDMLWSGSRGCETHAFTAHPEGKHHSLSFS

| SMILES | IC50 [1] | IC50 [2] | IC50 [3] | IC50 [3, 4] | BTK IC50 ([3]; recombinant purified human BTK, ATP 10 uM, Poly(Glu4,Tyr1) peptide, 1 hour 30° C.) |
| --- | --- | --- | --- | --- | --- |
| C=CC(=O)N1CC[C@@H](F)[C@H](Oc2nc(Nc3cnn(CC)c3)nc3[nH]ccc23)C1 (racemic) [Example 1, 1-(trans-3-((2-((1-ethyl-1H-pyrazol-4-yl)amino)-7H-pyrrolo[2,3-d]pyrimidin-4-yl)oxy)-4-fluoropiperidin-1-yl)prop-2-en-1-one] | 0.3 nM | 67.4 nM | 2.4 nM |  |  |
| C=CC(=O)N1CC[C@H](F)[C@H](Oc2nc(Nc3cnn(CC)c3)nc3[nH]ccc23)C1 (racemic) [Example 4, 1-(cis-3-((2-((1-ethyl-1H-pyrazol-4-yl)amino)-7H-pyrrolo[2,3-d]pyrimidin-4-yl)oxy)-4-fluoropiperidin-1-yl)prop-2-en-1-one] | 0.4 nM | 115 nM | 4.2 nM |  |  |
| C=CC(=O)N1CC[C@@H](F)[C@H](Oc2nc(Nc3cnn(CC)c3)nc3[nH]cc(Cl)c23)C1 (racemic) [Example 9, 1-(trans-3-((5-chloro-2-((1-ethyl-1H-pyrazol-4-yl)amino)-7H-pyrrolo[2,3-d]pyrimidin-4-yl)oxy)-4-fluoropiperidin-1-yl)prop-2-en-1-one] | 0.3 nM | 72.3 nM | 2.1 nM |  |  |
| C=CC(=O)N1CC[C@@H](F)[C@H](Oc2nc(Nc3cc(C)ns3)nc3[nH]cc(Cl)c23)C1 (racemic) [Example 11, 1-(trans-3-((5-chloro-2-((3-methylisothiazol-5-yl)amino)-7H-pyrrolo[2,3-d]pyrimidin-4-yl)oxy)-4-fluoropiperidin-1-yl)prop-2-en-1-one] | 0.3 nM | 96 nM | 2.5 nM |  |  |
| C=CC(=O)N1CC[C@@H](F)[C@@H](Oc2nc(Nc3cnn(CC)c3)nc3[nH]ccc23)C1 [Example 5, 1-((3S,4R)-3-((2-((1-ethyl-1H-pyrazol-4-yl)amino)-7H-pyrrolo[2,3-d]pyrimidin-4-yl)oxy)-4-fluoropiperidin-1-yl)prop-2-en-1-one] | 0.2 nM | 101 nM |  | 1.5 nM |  |
| C=CC(=O)N1CC[C@H](F)[C@@H](Oc2nc(Nc3cnn(CC)c3)nc3[nH]ccc23)C1 [Example 25, 1-((3S,4S)-3-((2-((1-ethyl-1H-pyrazol-4-yl)amino)-7H-pyrrolo[2,3-d]pyrimidin-4-yl)oxy)-4-fluoropiperidin-1-yl)prop-2-en-1-one] | 0.2 nM | 32.3 nM |  | 1.2 nM |  |
| C=CC(=O)N1CC[C@H](F)[C@H](Oc2nc(Nc3cnn(CC)c3)nc3[nH]ccc23)C1 [Example 28, 1-((3R,4S)-3-((2-((1-ethyl-1H-pyrazol-4-yl)amino)-7H-pyrrolo[2,3-d]pyrimidin-4-yl)oxy)-4-fluoropiperidin-1-yl)prop-2-en-1-one] | 15.5 nM |  |  | > 400 nM |  |
| C=CC(=O)N1CC[C@H](F)[C@H](Oc2nc(Nc3cnoc3)nc3[nH]ccc23)C1 [Example 29] | 152 nM |  |  | > 400 nM |  |
| C=CC(=O)N1CC[C@@H](F)[C@@H](Oc2nc(Nc3cnn(CCO)c3)nc3[nH]ccc23)C1 [Example 30, 1-((3S,4R)-4-fluoro-3-((2-((1-(2-hydroxyethyl)-1H-pyrazol-4-yl)amino)-7H-pyrrolo[2,3-d]pyrimidin-4-yl)oxy)piperidin-1-yl)prop-2-en-1-one] | 0.3 nM |  |  | 2.4 nM |  |
| C=CC(=O)N1CC[C@H](F)[C@H](Oc2nc(Nc3ccc(N4CCOCC4)cc3)nc3[nH]ccc23)C1 [Example 31, 1-((3R,4S)-4-fluoro-3-((2-((4-morpholinophenyl)amino)-7H-pyrrolo[2,3-d]pyrimidin-4-yl)oxy)piperidin-1-yl)prop-2-en-1-one] | 206 nM |  |  |  | No activity |
| C=CC(=O)N1CC[C@H](F)[C@H](Oc2nc(Nc3cc(C)ns3)nc3[nH]ccc23)C1 [Example 32, 1-((3R,4S)-4-fluoro-3-((2-((3-methylisothiazol-5-yl)amino)-7H-pyrrolo[2,3-d]pyrimidin-4-yl)oxy)piperidin-1-yl)prop-2-en-1-one] | 83.6 nM |  |  | > 400 nM |  |
| C=CC(=O)N1CC[C@H](F)[C@H](Oc2nc(Nc3cnn(C4CCOCC4)c3)nc3[nH]ccc23)C1 [Example 33, 1-((3R,4S)-4-fluoro-3-((2-((1-(tetrahydro-2H-pyran-4-yl)-1H-pyrazol-4-yl)amino)-7H-pyrrolo[2,3-d]pyrimidin-4-yl)oxy)piperidin-1-yl)prop-2-en-1-one] | 9 nM |  |  | > 80 nM |  |
| C=CC(=O)N1CC[C@H](F)[C@H](Oc2nc(Nc3ccc4ncsc4c3)nc3[nH]ccc23)C1 [Example 34, 1-((3R,4S)-3-((2-(benzo[d]thiazol-6-ylamino)-7H-pyrrolo[2,3-d]pyrimidin-4-yl)oxy)-4-fluoropiperidin-1-yl)prop-2-en-1-one] | > 80 nM |  |  | > 400 nM |  |

From patent US11339167B2, “Substituted piperidines as kinase inhibitors” (Daewoong Pharmaceutical Co., Ltd., priority 2017, dated 2022)
